Assay results taken from patent US9012443B2 (Amgen Inc., priority 2011, dated 2015).

Molecular target: Nav 1.7 (Homo sapiens (Human), UniProt Q15858)
Assay: Nav 1.7 in vitro PX assay (PatchXpress whole cell voltage clamp)
Assay type: cell-based
Conditions: 293 cells, human Nav1.7, partially inactivated state; read-out: Nav1.7 PX IC50 IP
Procedure: Nav 1.7 In Vitro PX Assay
293 cells stably transfected with human Nav1.7 were recorded in whole cell voltage clamp mode with the PatchXpress automated electrophysiology system (Molecular Devices, LLC, Sunnyvale, Calif.). Compound effects were measured on a partially inactivated state of the sodium channel. Cells were clamped to a holding potential yielding 20 to 50% inactivation. To elicit sodium current, channels were activated by pulsing to −10 mV for 20 msec. […] A single concentration of test compound was applied to cells for a duration of 3 minutes. Peak sodium current was measured at the end of the compound addition period to determine percent inhibition. Three to five cells were tested per concentration, and IC50 curves were fitted to percent inhibition as a function of concentration.

Nav 1.7, sequence (Q15858 whole entry): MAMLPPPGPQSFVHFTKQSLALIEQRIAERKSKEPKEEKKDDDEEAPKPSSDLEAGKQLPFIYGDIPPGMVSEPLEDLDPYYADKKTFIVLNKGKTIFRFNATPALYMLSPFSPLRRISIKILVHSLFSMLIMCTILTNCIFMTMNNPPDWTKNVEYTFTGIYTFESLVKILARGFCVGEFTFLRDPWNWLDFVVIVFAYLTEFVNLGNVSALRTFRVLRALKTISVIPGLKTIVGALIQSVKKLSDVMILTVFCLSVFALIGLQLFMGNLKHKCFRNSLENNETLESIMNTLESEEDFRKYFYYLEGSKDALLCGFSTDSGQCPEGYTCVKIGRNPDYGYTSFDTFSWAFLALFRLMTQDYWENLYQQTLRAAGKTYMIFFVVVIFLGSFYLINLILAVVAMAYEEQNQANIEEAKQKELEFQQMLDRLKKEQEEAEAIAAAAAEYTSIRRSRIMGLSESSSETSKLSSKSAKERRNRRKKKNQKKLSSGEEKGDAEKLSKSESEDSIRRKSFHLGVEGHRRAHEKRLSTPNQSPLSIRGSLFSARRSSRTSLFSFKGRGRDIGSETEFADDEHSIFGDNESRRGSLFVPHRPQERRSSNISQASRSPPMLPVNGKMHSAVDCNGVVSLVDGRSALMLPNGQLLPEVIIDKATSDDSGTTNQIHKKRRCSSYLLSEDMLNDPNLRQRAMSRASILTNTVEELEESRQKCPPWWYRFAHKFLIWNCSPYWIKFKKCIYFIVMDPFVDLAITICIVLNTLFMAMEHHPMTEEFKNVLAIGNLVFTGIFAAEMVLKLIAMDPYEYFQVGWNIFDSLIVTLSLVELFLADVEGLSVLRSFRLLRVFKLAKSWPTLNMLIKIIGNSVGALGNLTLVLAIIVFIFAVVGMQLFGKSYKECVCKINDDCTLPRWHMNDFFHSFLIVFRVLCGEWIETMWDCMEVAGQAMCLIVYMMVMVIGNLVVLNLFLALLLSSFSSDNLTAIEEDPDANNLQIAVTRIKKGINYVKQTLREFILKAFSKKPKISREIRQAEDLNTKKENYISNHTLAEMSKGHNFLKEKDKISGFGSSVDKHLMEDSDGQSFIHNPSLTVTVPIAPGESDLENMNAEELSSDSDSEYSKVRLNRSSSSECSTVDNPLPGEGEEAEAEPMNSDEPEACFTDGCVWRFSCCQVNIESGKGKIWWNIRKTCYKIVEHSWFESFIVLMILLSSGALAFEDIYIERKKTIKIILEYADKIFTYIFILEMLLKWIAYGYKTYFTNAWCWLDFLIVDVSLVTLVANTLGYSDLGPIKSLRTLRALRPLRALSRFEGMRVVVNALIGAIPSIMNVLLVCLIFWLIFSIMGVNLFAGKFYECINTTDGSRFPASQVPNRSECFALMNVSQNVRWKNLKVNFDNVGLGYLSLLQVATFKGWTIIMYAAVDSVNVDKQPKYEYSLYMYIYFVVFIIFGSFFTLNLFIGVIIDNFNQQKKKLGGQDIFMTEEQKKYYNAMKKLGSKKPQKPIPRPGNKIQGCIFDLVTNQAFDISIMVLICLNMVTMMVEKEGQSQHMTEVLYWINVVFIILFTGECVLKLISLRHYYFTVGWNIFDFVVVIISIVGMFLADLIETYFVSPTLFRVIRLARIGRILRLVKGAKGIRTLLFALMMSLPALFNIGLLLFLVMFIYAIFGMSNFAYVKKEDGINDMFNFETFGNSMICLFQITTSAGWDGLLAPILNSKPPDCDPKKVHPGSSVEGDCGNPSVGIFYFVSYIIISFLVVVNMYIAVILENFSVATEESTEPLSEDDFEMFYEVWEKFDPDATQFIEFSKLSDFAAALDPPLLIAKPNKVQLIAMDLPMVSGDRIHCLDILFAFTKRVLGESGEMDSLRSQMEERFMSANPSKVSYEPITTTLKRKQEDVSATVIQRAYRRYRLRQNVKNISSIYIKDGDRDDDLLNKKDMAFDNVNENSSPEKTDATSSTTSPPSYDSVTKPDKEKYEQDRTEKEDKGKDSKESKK

| SMILES | IC50 [nM] |
| --- | --- |
| CC(C)(O)c1ccccc1-c1nccc2cc(S(=O)(=O)Nc3nccs3)ccc12 [Example 384, 1-(2-(2-HYDROXYPROPAN-2-YL)PHENYL)-N-(THIAZOL-2-YL)ISOQUINOLINE-6-SULFONAMIDE] | 6710 |
| COc1cc(C(F)(F)F)ccc1-c1nccc2cc(S(=O)(=O)Nc3cc(Cl)ncn3)ccc12 [Example 422, N-(6-CHLOROPYRIMIDIN-4-YL)-1-(2-METHOXY-4-(TRIFLUOROMETHYL)PHENYL)ISOQUINOLINE-6-SULFONAMIDE] | 835 |
| COc1nc(OCC(C)C)ccc1-c1nccc2cc(S(=O)(=O)Nc3ccncn3)ccc12 [Example 418, 1-(6-ISOBUTOXY-2-METHOXYPYRIDIN-3-YL)-N-(PYRIMIDIN-4-YL)ISOQUINOLINE-6-SULFONAMIDE] | 2130 |
| COc1cc(F)ccc1-c1cncc2cc(S(=O)(=O)Nc3nccs3)ccc12 [Example 290, 4-(4-FLUORO-2-METHOXYPHENYL)-N-(THIAZOL-2-YL)ISOQUINOLINE-7-SULFONAMIDE] | 600 |
| COc1cc(-c2ccc(C)o2)ccc1-c1nccc2cc(S(=O)(=O)Nc3ccncn3)ccc12 [Example 461] | 1780 |
| Cc1cnc(F)c(-c2nccc3cc(S(=O)(=O)Nc4nccs4)ccc23)c1 [Example 377, 1-(2-FLUORO-5-METHYLPYRIDIN-3-YL)-N-(THIAZOL-2-YL)ISOQUINOLINE-6-SULFONAMIDE] | 24500 |
| COc1cc(-c2cccc(F)c2)c(Cl)cc1-c1nccc2cc(S(=O)(=O)Nc3cnsn3)ccc12 [Example 334, 1-(2-CHLORO-3′-FLUORO-5-METHOXY-[1,1′-BIPHENYL]-4-YL)-N-(1,2,5-THIADIAZOL-3-YL)ISOQUINOLINE-6-SULFONAMIDE] | 109 |
| COc1cc(C(F)(F)F)ccc1-c1nccc2cc(S(=O)(=O)Nc3nnc(Cl)s3)ccc12 [Example 425, N-(5-CHLORO-1,3,4-THIADIAZOL-2-YL)-1-(2-METHOXY-4-(TRIFLUOROMETHYL)PHENYL)ISOQUINOLINE-6-SULFONAMIDE] | 2210 |
| N#CCOc1cc(Cl)ccc1-c1nccc2cc(S(=O)(=O)Nc3ncns3)ccc12 [Example 404, 1-(4-CHLORO-2-(CYANOMETHOXY)PHENYL)-N-(1,2,4-THIADIAZOL-5-YL)ISOQUINOLINE-6-SULFONAMIDE 2,2,2-TRIFLUOROACETATE] | 428 |
| COc1cc(C(F)(F)F)ccc1-c1ccnc2c(C)c(S(=O)(=O)Nc3nccs3)ccc12 [Example 328, 4-(2-METHOXY-4-(TRIFLUOROMETHYL)PHENYL)-8-METHYL-N-(THIAZOL-2-YL)QUINOLINE-7-SULFONAMIDE] | 6870 |
| COc1ccccc1-c1ccnc2cc(S(=O)(=O)Nc3ccncn3)ccc12 [Example 281, 4-(2-METHOXYPHENYL)-N-(PYRIMIDIN-4-YL)QUINOLINE-7-SULFONAMIDE] | 1930 |
| O=S(=O)(Nc1nccs1)c1ccc2c(-c3ccc(F)cc3OC3CCOCC3)nccc2c1 [Example 414, 1-(4-FLUORO-2-((TETRAHYDRO-2H-PYRAN-4-YL)OXY)PHENYL)-N-(THIAZOL-2-YL)ISOQUINOLINE-6-SULFONAMIDE] | 7110 |
| COc1cc(-c2cccnc2)c(F)cc1-c1nccc2cc(S(=O)(=O)Nc3nncs3)ccc12 [Example 367, 1-(5-FLUORO-2-METHOXY-4-(PYRIDIN-3-YL)PHENYL)-N-(1,3,4-THIADIAZOL-2-YL)ISOQUINOLINE-6-SULFONAMIDE] | 1420 |
| COc1nc(-c2ccc(F)c(F)c2)ccc1-c1nccc2cc(S(=O)(=O)Nc3ccncn3)ccc12 [Example 499, 1-(6-(3,4-DIFLUOROPHENYL)-2-METHOXYPYRIDIN-3-YL)-N-(PYRIMIDIN-4-YL)ISOQUINOLINE-6-SULFONAMIDE] | 830 |
| Cc1cc(C#N)ccc1-c1ccnc2cc(S(=O)(=O)Nc3ncns3)ccc12 [Example 323] | 2300 |
| COc1cc(-c2ccc(C#N)cc2)ccc1-c1nccc2cc(S(=O)(=O)Nc3ccncn3)ccc12 [Example 455, 1-(4′-CYANO-3-METHOXY-[1,1′-BIPHENYL]-4-YL)-N-(PYRIMIDIN-4-YL)ISOQUINOLINE-6-SULFONAMIDE] | 904 |
| COc1ccccc1-c1c(Br)cnc2cc(S(=O)(=O)Nc3nccs3)ccc12 [Example 325, 3-BROMO-4-(2-METHOXYPHENYL)-N-(THIAZOL-2-YL)QUINOLINE-7-SULFONAMIDE] | 5110 |
| COc1ccc(C2=CCOCC2)cc1-c1nccc2cc(S(=O)(=O)Nc3ccncn3)ccc12 [Example 353, 1-(5-(3,6-DIHYDRO-2H-PYRAN-4-YL)-2-METHOXYPHENYL)-N-(PYRIMIDIN-4-YL)ISOQUINOLINE-6-SULFONAMIDE] | 5170 |
| COc1cc(C(F)(F)F)ccc1-c1nccc2cc(S(=O)(=O)Nc3ncc(Cl)s3)ccc12 [Example 420, N-(5-CHLOROTHIAZOL-2-YL)-1-(2-METHOXY-4-(TRIFLUOROMETHYL)PHENYL)ISOQUINOLINE-6-SULFONAMIDE] | 367 |
| COc1ncc(F)cc1-c1nccc2cc(S(=O)(=O)Nc3nccs3)ccc12 [Example 410, 1-(5-FLUORO-2-METHOXYPYRIDIN-3-YL)-N-(THIAZOL-2-YL)ISOQUINOLINE-6-SULFONAMIDE] | 1670 |
| O=S(=O)(Nc1ncns1)c1ccc2c(N3CCC[C@H]3c3cccnc3)cccc2c1 (single isomer, unassigned) [Example 86] | 62.7 |
| COc1ncccc1-c1nccc2cc(S(=O)(=O)Nc3nccs3)ccc12 [Example 407, 1-(2-METHOXYPYRIDIN-3-YL)-N-(THIAZOL-2-YL)ISOQUINOLINE-6-SULFONAMIDE] | 4970 |
| COc1cc(C(F)F)c(OC)cc1-c1nccc2cc(S(=O)(=O)Nc3ccncn3)ccc12 [Example 453, 1-(4-(DIFLUOROMETHYL)-2,5-DIMETHOXYPHENYL)-N-(PYRIMIDIN-4-YL)ISOQUINOLINE-6-SULFONAMIDE] | 4880 |
| COc1cc(C(F)(F)F)ccc1-c1nccc2cc(S(=O)(=O)Nc3ccon3)ccc12 [Example 423] | 1340 |
| COc1cc(-c2ccc3[nH]ccc3c2)ccc1-c1nccc2cc(S(=O)(=O)Nc3ccncn3)ccc12 [Example 489, 1-(4-(1H-INDOL-5-YL)-2-METHOXYPHENYL)-N-(PYRIMIDIN-4-YL)ISOQUINOLINE-6-SULFONAMIDE] | 1830 |
| COc1cc(-c2cccc(F)c2)c(Cl)cc1-c1nccc2cc(S(=O)(=O)Nc3ncns3)ccc12 [Example 331, 1-(2-CHLORO-3′-FLUORO-5-METHOXY-[1,1′-BIPHENYL]-4-YL)-N-(1,2,4-THIADIAZOL-5-YL)ISOQUINOLINE-6-SULFONAMIDE] | 23 |
| COc1cc(C(F)(F)F)ccc1-c1nccc2cc(S(=O)(=O)Nc3ncco3)ccc12 [Example 389, 1-(2-METHOXY-4-(TRIFLUOROMETHYL)PHENYL)-N-(OXAZOL-2-YL)ISOQUINOLINE-6-SULFONAMIDE] | 2790 |
| O=S(=O)(Nc1ncns1)c1ccc2c(N3CCC[C@@H]3c3ccncc3)cccc2c1 (single isomer, unassigned) [Example 90] | 39.3 |
| COc1cc(-c2cccnc2OC)ccc1-c1nccc2cc(S(=O)(=O)Nc3ccncn3)ccc12 [Example 482, 1-(2-METHOXY-4-(2-METHOXYPYRIDIN-3-YL)PHENYL)-N-(PYRIMIDIN-4-YL)ISOQUINOLINE-6-SULFONAMIDE] | 778 |
| COc1cc(F)ccc1-c1ncc(O)c2cc(S(=O)(=O)Nc3nccs3)ccc12 [Example 233, 1-(4-FLUORO-2-METHOXYPHENYL)-4-HYDROXY-N-(THIAZOL-2-YL)ISOQUINOLINE-6-SULFONAMIDE 2,2,2-TRIFLUOROACETATE] | 510 |
